# Source: patent US20230118795A1, “ARYL OR HETEROARYL PYRIDONE OR PYRIMIDINE DERIVATIVE, PREPARATION METHOD AND USE THEREOF” (SUZHOU ZELGEN BIOPHARMACEUTICALS CO., LTD., priority 2020, published 2023)
# Test system: NCI-H358 (KRAS^G12C mutation) cell
# Test: Cell assay of antiproliferative activity against NCI-H358 cell (Celltiter-Glo, 5 days)
# Assay type: cell-based
# Settings: 5 days incubation
# Method: Cell Assay of Antiproliferative Activity of Compounds Against NCI-H358 (KRAS^G12C Mutation) Cell.
# 40 μL phosphate buffer was added to the outer wells of the 384 microplate, and 40 μL cell suspension to be tested was added to the other wells. Then the microplate was incubated in a carbon dioxide incubator overnight.
# The compounds to be tested were gradiently diluted, each compound was performed 10 concentration gradients (diluted from 50 μM to 0.003 μM) and added 100 nL to the corresponding wells in the microplate. After addition, 40 μl of phosphate buffer was added to each well in rows A and P and columns 1 and 24, and then the microplate was incubated in a carbon dioxide incubator for 5 days.
# 20 μL of Promega Celltiter-Glo reagent was added to each well of the microplate, and then the luminescence signal was stabilized by oscillating at room temperature for 10 min. Then PekinElmer Envision multi-label analyzer was used to read.
# Finally, GraphPad Prism software was used to calculate the IC50 value of the compound and the fitting curve was drawn.
# Anti-proliferative activity of the compounds of the present invention against NCI-H358 (KRAS^G12C mutation) cell was shown in Table 1.
row,IC50,Compound
1,18 nM,"C=CC(=O)N1CCN(c2nc(=O)n(-c3c(C(C)C)cccc3S(C)(=O)=O)c3nc(-c4ccccc4Cl)c(F)cc23)[C@@H](C)C1 [Example 30, (S)-4-(4-acryloyl-2-methylpiperazin-1-yl)-7-(2-chlorophenyl)-6-fluoro-1-(2-isopropyl-6-(methylsulfonyl)phenyl) pyridino[2,3-d]pyrimidin-2(1H)-one]"
2,8 nM,"C=CC(=O)N1CCN(c2nc(=O)n(-c3c(C(C)C)cccc3S(C)(=O)=O)c3nc(-c4c(F)cccc4OC(C)=O)c(F)cc23)[C@@H](C)C1 [Example 31, 2-(4-((S))-4-acryloyl-2-methylpiperazin-1-yl)-6-fluoro-1-(2-isopropyl-6-(methylsulfonyl)phenyl)-2-oxo-1,2-dihydropyridino[2,3-d]pyrimidin-7-yl)-3-fluorophenyl acetate]"
3,2500 nM,"C=CC(=O)N1CCN(c2nc(=O)n(-c3cccnc3S(C)(=O)=O)c3nc(-c4c(O)cccc4F)c(F)cc23)[C@@H](C)C1 [Example 54, 4-((S)-4-acryloyl-2-methylpiperazin-1-yl)-6-fluoro-7-(2-fluoro-6-hydroxyphenyl)-1-(2-(methylsulfonyl)pyridin-3-yl) pyridino [2,3-d] pyrimidin-2(1H)-one]"
4,8000 nM,"C=CC(=O)N1CCN(c2nc(=O)n(-c3ccccc3S(C)(=O)=O)c3nc(-c4c(O)cccc4F)c(F)cc23)CC1CC#N (stereo not shown) [Example 56, 2-(1-acryloyl-4-(6-fluoro-7-(2-fluoro-6-hydroxyphenyl)-1-(2-(methylsulfonyl)phenyl)-2-oxo-1,2-dihydropyridino [2,3-d]pyrimidin-4-yl)piperazin-2-yl) acetonitrile]"
5,10000 nM,"C=CC(=O)N1CCN(c2nc(=O)n(-c3c(C)cccc3S(C)(=O)=O)c3nc(-c4c(O)cccc4F)c(F)cc23)CC1CC#N (stereo not shown) [Example 57, 2-(1-acryloyl-4-(6-fluoro-7-(2-fluoro-6-hydroxyphenyl)-1-(2-methyl-6-(methylsulfonyl)phenyl)-2-oxo-1,2-dihydropyridino [2,3-d]pyrimidin-4-yl)piperazin-2-yl) acetonitrile]"

# More lines, now with the values behind:
row,Compound,IC50
1,"C=CC(=O)N1CCN(c2nc(=O)n(-c3c(S(C)(=O)=O)ccnc3C(C)C)c3nc(-c4c(O)cccc4F)c(F)cc23)[C@@H](C)C1 [Example 18, 4-((S)-4-acryloyl-2-methylpiperazin-1-yl)-6-fluoro-7-(2-fluoro-6-hydroxyphenyl)-1-(2-isopropyl-4-(methylsulfonyl)pyridin-3-yl)pyridino[2,3-d]pyrimidin-2 (1H)-one]",30 nM
2,C=CC(=O)N1CCN(c2nc(=O)n(-c3c(C(C)C)ccnc3S(C)(=O)=O)c3nc(-c4c(F)cccc4OC(C)=O)c(F)cc23)[C@@H](C)C1 [Example 24],28 nM
3,"C=CC(=O)N1CCN(c2nc(=O)n(-c3c(C4CCC4)cccc3S(C)(=O)=O)c3nc(-c4c(O)cccc4F)c(F)cc23)[C@@H](C)C1 [Example 25, 4-((S)-4-acryloyl-2-methylpiperazin-1-yl)-1-(2-cyclobutyl-6-(methylsulfonyl)phenyl)-6-fluoro-7-(2-fluoro-6-hydroxyphenyl) pyridino[2,3-d]pyrimidin-2(1H)-one]",9 nM

# Same assay, conditions: Homo sapiens, NCI-H358, 120 h, 5 days incubation
row,IC50,Compound
1,53 nM,C=CC(=O)N1CCN(c2nc(=O)n(-c3c(C(C)C)cncc3S(C)(=O)=O)c3nc(-c4c(O)cccc4F)c(F)cc23)[C@@H](C)C1 [Example 29]
2,5300 nM,C=CC(=O)N1CCN(c2nc(=O)n(-c3cnccc3S(C)(=O)=O)c3nc(-c4c(O)cccc4F)c(F)cc23)[C@@H](C)C1 [Example 55]
3,10000 nM,"C=CC(=O)N1CCN(c2nc(=O)n(-c3cccnc3S(C)(=O)=O)c3nc(-c4c(O)cccc4F)c(F)cc23)CC1CC#N (stereo not shown) [Example 58, 2-(1-acryloyl-4-(6-fluoro-7-(2-fluoro-6-hydroxyphenyl)-1-(2-(methylsulfonyl)pyridin-3-yl)-2-oxo-1,2-dihydropyridino [2,3-d]pyrimidin-4-yl)piperazin-2-yl) acetonitrile]"

# More lines, now with the values behind:
row,Compound,IC50
1,"C=CC(=O)N1C[C@H](C)N(c2nc(=O)n(-c3c(CC)cccc3S(C)(=O)=O)c3nc(-c4c(O)cccc4F)c(F)cc23)C[C@H]1C [Example 12, 4-((2S,5R)-4-acryloyl-2,5-dimethylpiperazin-1-yl)-1-(2-ethyl-6-(methylsulfonyl)phenyl)-6-fluoro-7-(2-fluoro-6-hydroxyphenyl) pyridino [2,3-d] pyrimidin-2 (1H)-one]",41 nM
2,"C=CC(=O)N1CCN(c2nc(=O)n(-c3c(C4CC4)cccc3S(C)(=O)=O)c3nc(-c4ccccc4F)c(F)cc23)[C@@H](C)C1 [Example 13, (S)-4-(4-acryloyl-2-methylpiperazin-1-yl)-1-(2-cyclopropyl-6-(methylsulfonyl)phenyl)-6-fluoro-7-(2-fluorophenyl) pyridin [2,3-d] pyrimidin-2(1H)-one]",15 nM
3,C=CC(=O)N1CCN(c2nc(=O)n(-c3c(C)cccc3S(=O)(=O)N(C)C)c3nc(-c4c(O)cccc4F)c(F)cc23)[C@@H](C)C1 [Example 14],360 nM
4,"C=CC(=O)N1CCN(c2nc(=O)n(-c3c(C4CC4)cccc3S(C)(=O)=O)c3nc(-c4c(F)cccc4F)c(F)cc23)[C@@H](C)C1 [Example 15, (S)-4-(4-acryloyl-2-methylpiperazin-1-yl)-1-(2-cyclopropyl-6-(methylsulfonyl)phenyl)-7-(2,6-difluorophenyl)-6-fluoropyridino [2,3-d] pyrimidin-2(1H)-one]",58 nM
5,"C=CC(=O)N1CCN(c2nc(=O)n(-c3c(C(C)C)ccnc3S(C)(=O)=O)c3nc(-c4c(O)cccc4F)c(F)cc23)[C@@H](C)C1 [Example 16, 4-((S)-4-acryloyl-2-methylpiperazin-1-yl)-6-fluoro-7-(2-fluoro-6-hydroxyphenyl)-1-(4-isopropyl-2-(methylsulfonyl)pyridin-3-yl) pyridino [2,3-d] pyrimidin-2 (1H)-one]",12 nM
6,"C=CC(=O)N1CCN(c2nc(=O)n(-c3c(C4CC4)cccc3S(C)(=O)=O)c3nc(-c4ccccc4Cl)c(F)cc23)[C@@H](C)C1 [Example 17, (S)-4-(4-acryloyl-2-methylpiperazin-1-yl)-7-(2-chlorophenyl)-1-(2-cyclopropyl-6-(methylsulfonyl)phenyl)-6-fluoropyridino [2,3-d] pyrimidin-2(1H)-one]",31 nM
7,"C=CC(=O)N1CCN(c2nc(=O)n(-c3c(C(C)C)ccnc3S(C)(=O)=O)c3nc(-c4c(F)cccc4OC)c(F)cc23)[C@@H](C)C1 [Example 19, 4-((S)-4-acryloyl-2-methylpiperazin-1-yl)-6-fluoro-7-(2-fluoro-6-methoxyphenyl)-1-(4-isopropyl-2-(methylsulfonyl)pyridin-3-yl) pyridino[2,3-d]pyrimidin-2(1H)-one]",48 nM
8,"C=CC(=O)N1CCN(c2nc(=O)n(-c3c(C(C)C)ccnc3S(C)(=O)=O)c3nc(-c4ccccc4Cl)c(F)cc23)[C@@H](C)C1 [Example 20, (S)-4-(4-acryloyl-2-methylpiperazin-1-yl)-7-(2-chlorophenyl)-6-fluoro-1-(4-isopropyl-2-(methylsulfonyl)pyridin-3-yl) pyridino[2,3-d] pyrimidin-2(1H)-one]",23 nM
9,C=C(F)C(=O)N1CCN(c2nc(=O)n(-c3c(C(C)C)cccc3S(C)(=O)=O)c3nc(-c4c(O)cccc4F)c(F)cc23)[C@@H](C)C1 [Example 21],1200 nM
10,"C=CC(=O)N1CCN(c2nc(=O)n(-c3c(C(C)C)ccnc3S(C)(=O)=O)c3nc(-c4ccc(F)cc4Cl)c(F)cc23)[C@@H](C)C1 [Example 22, (S)-4-(4-acryloyl-2-methylpiperazin-1-yl)-7-(2-chloro-4-fluorophenyl)-6-fluoro-1-(4-isopropyl-2-(methylsulfonyl)pyridin-3-yl) pyridino[2,3-d]pyrimidin-2(1H)-one]",39 nM
11,"C=C(F)C(=O)N1CCN(c2nc(=O)n(-c3c(C(C)C)cccc3S(C)(=O)=O)c3nc(-c4ccccc4Cl)c(F)cc23)[C@@H](C)C1 [Example 23, (S)-7-(2-chlorophenyl)-6-fluoro-4-(4-(2-fluoroacryloyl)-2-methylpiperazin-1-yl)-1-(2-isopropyl-6-(methylsulfonyl)phenyl)pyridino[2,3-d]pyrimidin-2(1H)-one]",1100 nM
12,"C=CC(=O)N1CCN(c2nc(=O)n(-c3c(C(C)C)ccnc3S(C)(=O)=O)c3nc(-c4cccc(F)c4Cl)c(F)cc23)[C@@H](C)C1 [Example 26, (S)-4-(4-acryloyl-2-methylpiperazin-1-yl)-7-(2-chloro-3-fluorophenyl)-6-fluoro-1-(4-isopropyl-2-(methylsulfonyl)pyridin-3-yl) pyridino[2,3-d] pyrimidin-2(1H)-one]",18 nM
13,"C=CC(=O)N1CCN(c2nc(=O)n(-c3c(C(C)C)ccnc3S(C)(=O)=O)c3nc(-c4c(O)cccc4Cl)c(F)cc23)[C@@H](C)C1 [Example 27, 4-((S)-4-acryloyl-2-methylpiperazin-1-yl)-7-(2-chloro-6-hydroxyphenyl)-6-fluoro-1-(4-isopropyl-2-(methylsulfonyl)pyridin-3-yl) pyridino[2,3-d] pyrimidin-2(1H)-one]",30 nM
14,"C=CC(=O)N1CCN(c2nc(=O)n(-c3c(C(C)C)ccnc3S(C)(=O)=O)c3nc(-c4c(F)cccc4Cl)c(F)cc23)[C@@H](C)C1 [Example 28, 4-((S)-4-acryloyl-2-methylpiperazin-1-yl)-7-(2-chloro-6-fluorophenyl)-6-fluoro-1-(4-isopropyl-2-(methylsulfonyl)pyridin-3-yl) pyridino[2,3-d] pyrimidin-2(1H)-one]",26 nM
